Series [1] deals with lysosomes of RAW 264.7 cells. Briefly: Confocal imaging of live cell lysosomes co-stained with DND-26. Type of series: cell-based. The following applies: co-stain 1 μM DND-26, PBS washed. The protocol: The fluorescent imaging of compounds D1, D6, D22 and D25. After incubating for 24 hours in a cell incubator with 5% CO2 at 37° C., RAW 264.7 cells were incubated with 1 μM D1 or 1 μM D6 for 5 min, or incubated with 1 μM D22 or 1 μM D25 for 60 min, then incubated with 1 μM DND-26 which is green lysosome probe for 5 min, washed three times with PBS, then imaged using a confocal microscope.
The fluorescence image of compounds D15, D20, D46 and D51. After incubating for 24 hours in a cell incubator with 5% CO2 at 37° C., RAW 264.7 cells were incubated with 1 μM D15 or 1 μM D20 for 5 min, or incubated with 1 μM D46 or 1 μM D51 for 60 min, then incubated with 1 μM DND-26 for 5 min, washed three times with PBS, and then imaged using a confocal microscope.

Series [2] is described as follows: Photophysical properties in acetonitrile (absorption, emission, extinction coefficient, quantum yield). The class given is physicochemical. The protocol: The photophysical properties of compounds D1, D2, D25 and D26 were investigated. Compounds D1, D2, D25 and D26 were dissolved in DMSO to obtain a 1 mM stock solution. The stock solution was further diluted with acetonitrile to obtain a 1 μM testing solution, of which 1 μL trifluoroacetic acid (0.1% by volume) was added. The absorption spectrum, emission spectrum, quantum yield and molar extinction coefficient of these testing solutions were measured. The absorption spectrum was recorded on Agilent 8453 UV-Vis-Spectrophotometer, and the fluorescent spectrum was recorded on an Agilent fluorescence spectrometer. The maximum absorption spectrum (λab), the maximum emission spectrum (λem), the molar extinction coefficient (ε), and the fluorescence quantum yield (Φ^1) of compounds D1, D2, D25 and D26 were shown in Table 1.
(§1) The photophysical properties of compounds D6, D15, D20, D22, D46 and D51 are provided in Table 2, following a similar testing method as example 14 and example 15. […] It can be seen that such property is in favor of confocal imaging of lysosomes without PBS washing.

Series [3] can be described thus: Emission in 2 mM CTAB (pH 3) or H2O (pH 7). Type of series: physicochemical. The following applies: for Fluorescence emission in 2 mM CTAB at pH 3 / Fluorescence emission in water at pH 7: Table 2; for Emission in 2 mM CTAB at pH 3 / Fluorescence in water at pH 7: FIG. 1, 1 μM; for Emission in 2 mM CTAB at pH 3: pH 3, lysosome-like microenvironment; for Fluorescence in water at pH 7: H2O. The protocol:
The properties of compounds D1, D2, D25 and D26 were investigated. Compounds D1, D2, D25 and D26 were dissolved in DMSO to obtain a 1 mM stock solution. The stock solution was further diluted with 2 mM CTAB (pH 3) or H2O (pH 7) to obtain a 1 μM testing solution. The absorption spectrum and emission spectrum of the testing solution were measured. The evaluated method of photophysical properties was the same as example 13.
CTAB (Hexadecyl trimethyl ammonium bromide) is a cationic surfactant with a critical micelle concentration of 0.9 mM. CTBA exists in the form of micelles in a 2 mM solution of CTAB, which not only helps dissolve dye molecules but also simulates the acidic microenvironment of lysosomes. […] It is preliminarily determined that such property is in favor of confocal imaging of lysosomes without PBS washing.
as §1

Series [4] in a line: Confocal imaging of stained vesicles at pH 4.0 and pH 7.4. The following applies: 60 min. On the procedure:
We further investigate the targeting feature by imaging vesicles stained with D25 at pH 4.0 and pH 7.4.
The “droplet transfer” method was used to prepare vesicles composed of PC/Chol molar ratios of 7:3, following six steps as below: 1) Prepare 200 mM glucose aqueous solution and sucrose aqueous solution respectively. 2) Hydrophobic phase (0.3 mM PC in decane+0.3 mM CL in decane for PC/CL). 3) The hydrophobic phase was prepared by adding PC (0.3 mM) and possibly other lipids (SM and/or Chol) in decane. 4) Pipette the aqueous phase consisting of 20 μL of sucrose solution and the hydrophobic phase consisting of 600 μL PC/CL into a 1.5 ml centrifuge tube and shake them well. 5) Centrifuge the tube, then remove the mineral oil and wash the GUVs to remove excess solutes. 6) Suspend 30 μL of the pellet in 20 μL of 200 mM glucose solution. 7) Pipette 20 μL onto a glass slide and observe with a confocal microscope and fluorescence lifetime microscope.
Method for vesicles imaging, 30 μL of the vesicles was diluted with 20 μL of 200 mM glucose solution, then stained with D25 in pH 4 PBS (or in pH 7.4 PBS) for 60 min and imaged with a confocal microscope.

In series [5] the test system is lysosomes of RAW 264.7 cells. Briefly: Confocal imaging of live cell lysosomes without washing. The class given is cell-based. The conditions noted are these: 100 nM for 60 min, no washing. On the procedure:
The fluorescence image of compound D25. After incubating for 24 hours in a cell incubator with 5% CO2 at 37° C., RAW 264.7 cells were incubated with 100 nM D25 for 60 min and then imaged using a confocal microscope.

Series [6] concerns lysosomes of RAW 264.7 cells. In words: Confocal imaging of lysosomes after chloroquine stimulation. The class given is cell-based. The conditions noted are these: 1 μM, co-staining D25 and DND-26, 20 µM chloroquine, within 5 min. On the procedure: The fluorescence imaging of compound D25. After incubating for 24 hours in a cell incubator with 5% CO2 at 37° C., RAW 264.7 cells were incubated with 1 μM D25 for 60 min, then incubated with 1 μM DND-26 for 5 min, washed three times with PBS, and then imaged using a confocal microscope after adding 20 µM chloroquine. Chloroquine can cause protons to escape from lysosomes, so it can be used to raise the pH of the lysosomes.

Series [7] has as its system lysosomal membrane of RAW 264.7 cells. Briefly: STED-based super-resolution imaging. The class given is cell-based. The conditions noted are these: 250 nM for 60 min. On the procedure: We used D25 as a representative to evaluate its ability to perform STED-based super-resolution imaging. After incubating for 24 hours in a cell incubator with 5% CO2 at 37° C., RAW 264.7 cells were stained with 250 nM D25 for 60 min and imaged using STED based microscope after replacing the staining solution with fresh MEM.

Where [8] appears, read: Table 1, acetonitrile, 1 μM, trifluoroacetic acid 0.1% by volume.

`COc1ccc(C2=C3C(C)=C(Cl)C(C=Cc4ccc5c(c4)c4ccccc4n5Cc4cn(CCN5CCNCC5)nn4)=[N+]3[B-](F)(F)n3c(C=Cc4ccc5c(c4)c4ccccc4n5Cc4cn(CCN5CCNCC5)nn4)c(Cl)c(C)c32)cc1` [D51]: the “Lysosome targeting in confocal images” value in series [1] (1 μM for 60 min) is “can specifically target lysosomes”. Also, in series [2] (Table 2, in acetonitrile), the “Φ^1 (fluorescence quantum yield)” value is 0.79, the “ε (molar extinction coefficient)” value worked out at 11.1 M^−1 · cm^−1 × 10^4, the “λab (maximum absorption)” value came out at 689 nm and the “λem (maximum emission)” value is reported as 728 nm. For the same compound, in series [3], the “Fluorescence emission in 2 mM CTAB at pH 3” value was “Stable” and the “Fluorescence emission in water at pH 7” value was “No”.
Regarding `CC1=C(Cl)C(C)=[N+]2C1=C(c1ccc(C)cc1)c1c(C)c(Cl)c(C=Cc3ccc4c(c3)c3ccccc3n4Cc3cn(CCN4CCNCC4)nn3)n1[B-]2(F)F` [D6], the “Lysosome targeting in confocal images” value in series [1] (1 μM for 5 min) is reported as “can specifically target lysosomes”. Further, in series [2] (Table 2, in acetonitrile), the “Φ^1 (fluorescence quantum yield)” value is 0.73, the “ε (molar extinction coefficient)” value is listed as 8.1 M^−1 · cm^−1 × 10^4, the “λab (maximum absorption)” value turned out to be 590 nm and the “λem (maximum emission)” value was 615 nm. In series [3], the “Fluorescence emission in 2 mM CTAB at pH 3” value is recorded as “Stable” and the “Fluorescence emission in water at pH 7” value is recorded as “No”.
On to `CC1=CC(C=Cc2ccc3c(c2)c2ccccc2n3Cc2cn(CCN(C)CCN(C)C)nn2)=[N+]2C1=C(c1ccccc1)c1c(C)cc(C=Cc3ccc4c(c3)c3ccccc3n4Cc3cn(CCN(C)CCN(C)C)nn3)n1[B-]2(F)F` [D25], for which the “Lysosome targeting in confocal images” value in series [1] (1 μM for 60 min) is “can specifically target lysosomes”. Further, in series [2] (Table 1, acetonitrile), the “Φ^1 (fluorescence quantum yield)” value was determined as 0.94 and the “ε (molar extinction coefficient)” value is on record as 9.2 M^−1 · cm^−1 × 10^4. Besides, in series [2] (setting [8]), the “λab (maximum absorption)” value came out at 664 nm and the “λem (maximum emission)” value turned out to be 684 nm. In series [4] (pH 4 PBS), the “Fluorescence of stained vesicles at pH 4” value is “intense fluorescence”. In addition, the “Fluorescence of stained vesicles at pH 7.4” value in series [4] (pH 7.4 PBS) was “weak fluorescence”. In series [5], the “Lysosome imaging without washing” value is given as “can be used for lysosome images without washing”. In addition, the “Change of fluorescence intensity after adding chloroquine” value in series [6] is listed as “only changed slightly”. The “Localization in super-resolution image” value in series [7] is listed as “localized in the lysosomal membrane”. For the same compound, in series [3], the “Emission in 2 mM CTAB at pH 3” value was “stable emission” and the “Fluorescence in water at pH 7” value is recorded as “almost no fluorescence”.
For `CC1=CC(C)=[N+]2C1=C(c1ccccc1)c1c(C)cc(C=Cc3ccc4c(c3)c3ccccc3n4Cc3cn(CCN(C)CCN(C)C)nn3)n1[B-]2(F)F` [D1], the “Lysosome targeting in confocal images” value in series [1] (1 μM for 5 min) is reported as “can specifically target lysosomes”. Besides, in series [2] (Table 1, acetonitrile), the “Φ^1 (fluorescence quantum yield)” value amounted to 0.83 and the “ε (molar extinction coefficient)” value came out at 7.5 M^−1 · cm^−1 × 10^4. Moreover, in series [2] (setting [8]), the “λab (maximum absorption)” value is 581 nm and the “λem (maximum emission)” value was determined as 603 nm. For the same compound, in series [3], the “Emission in 2 mM CTAB at pH 3” value was “stable emission” and the “Fluorescence in water at pH 7” value is “almost no fluorescence”.
For the compound `CC1=C(Cl)C(C=Cc2ccc3c(c2)c2ccccc2n3Cc2cn(CCN(C)CCN(C)C)nn2)=[N+]2C1=C(c1ccccc1)c1c(C)c(Cl)c(C=Cc3ccc4c(c3)c3ccccc3n4Cc3cn(CCN(C)CCN(C)C)nn3)n1[B-]2(F)F` [D26], in series [2] (Table 1, acetonitrile), the “Φ^1 (fluorescence quantum yield)” value is 0.72 and the “ε (molar extinction coefficient)” value is 11.3 M^−1 · cm^−1 × 10^4. Also, in series [2] (setting [8]), the “λab (maximum absorption)” value was 692 nm and the “λem (maximum emission)” value is given as 732 nm. For the same compound, in series [3], the “Emission in 2 mM CTAB at pH 3” value is on record as “stable emission” and the “Fluorescence in water at pH 7” value was “almost no fluorescence”.
`CC1=C(Cl)C(C)=[N+]2C1=C(c1ccccc1)c1c(C)c(Cl)c(C=Cc3ccc4c(c3)c3ccccc3n4Cc3cn(CCN(C)CCN(C)C)nn3)n1[B-]2(F)F` [D2]: in series [2] (Table 1, acetonitrile), the “Φ^1 (fluorescence quantum yield)” value was 0.63 and the “ε (molar extinction coefficient)” value was 10.4 M^−1 · cm^−1 × 10^4. Further, in series [2] (setting [8]), the “λab (maximum absorption)” value is on record as 604 nm and the “λem (maximum emission)” value amounted to 650 nm. Besides, in series [3], the “Emission in 2 mM CTAB at pH 3” value is “stable emission” and the “Fluorescence in water at pH 7” value is on record as “almost no fluorescence”.
For the compound `CCOC(=O)CCC1=C2C(C)=CC(C)=[N+]2[B-](F)(F)n2c(C=Cc3ccc4c(c3)c3ccccc3n4Cc3cn(CCCN(C)CCN(C)C)nn3)cc(C)c21` [D22], in series [1] (1 μM for 60 min), the “Lysosome targeting in confocal images” value was “can specifically target lysosomes”. Further, in series [2] (Table 2, in acetonitrile), the “Φ^1 (fluorescence quantum yield)” value is listed as 0.81, the “ε (molar extinction coefficient)” value is reported as 10.8 M^−1 · cm^−1 × 10^4, the “λab (maximum absorption)” value was 611 nm and the “λem (maximum emission)” value turned out to be 661 nm. For the same compound, in series [3], the “Fluorescence emission in 2 mM CTAB at pH 3” value is on record as “Stable” and the “Fluorescence emission in water at pH 7” value is “No”.
In the case of `CCOC(=O)CCC1=C2C(C)=CC(/C=C/c3ccc4c(c3)c3ccccc3n4Cc3cn(CCCN(C)CCN(C)C)nn3)=[N+]2[B-](F)(F)n2c(/C=C/c3ccc4c(c3)c3ccccc3n4Cc3cn(CCCN(C)CCN(C)C)nn3)cc(C)c21` [D46], in series [1] (1 μM for 60 min), the “Lysosome targeting in confocal images” value is “can specifically target lysosomes”. For the same compound, in series [2] (Table 2, in acetonitrile), the “Φ^1 (fluorescence quantum yield)” value is recorded as 0.89, the “ε (molar extinction coefficient)” value came out at 11.0 M^−1 · cm^−1 × 10^4, the “λab (maximum absorption)” value was found to be 659 nm and the “λem (maximum emission)” value stood at 675 nm. Also, in series [3], the “Fluorescence emission in 2 mM CTAB at pH 3” value was “Stable” and the “Fluorescence emission in water at pH 7” value was “No”.

Source of the values: patent US11584762B1, “Near-infrared fluorescent indicators for lysosome and application thereof” (DALIAN UNIVERSITY OF TECHNOLOGY, priority 2022, dated 2023).
